# Laboratory results as given in publication PMC5175284, “Mechanistic Study of Tetrahydrofuran- acetogenins In Triggering Endoplasmic Reticulum Stress Response-apotoposis in Human Nasopharyngeal Carcinoma” (Scientific Reports, 2016).
# pIC50: −log10 of the molar value. Like-named read-outs stand apart in the source and are kept apart here. * marks the point of attachment. Cbz = O=C(OCc1ccccc1)*; CH2F = FC*
# Tests used:
# NPC-TW01 cells [1] = assay: Mitochondrial Ca2+ concentration (Rhod-2, flow cytometry); type: cell-based, human; conditions: 24 hours
# Method: (§1) The cytosolic and mitochondrial Ca^2+ concentrations were measured using fluo-3 and Rhod-2, respectively. The intensity of de-esterification of intracellular AM esters in the THF-ACGs treated or control tumor cells were measured after 30 mins of incubation. For each analysis, 10,000 events were recorded and results were analyzed using De Novo software.
# H226 cells = assay: Growth inhibition assay (MTT), H226; type: cell-based; conditions: Homo sapiens, NCI-H226, treated for three generations, read-out: Growth inhibitory activity IC50, H226
# Method: (§2) The colorimetric assay for cellular growth and survival was performed as described by Hansen et al., with slight modifications. Pre-determinate numbers of cells were seeded in a 96-well microplate and designated compounds at various concentrations were added for the indicated time period. MTT containing solution was added after compound treatment and conversion of MTT to formazan by metabolically viable cells was measured by absorbance at 490 nm in a 96-well microtiter plate reader. The percentage of conversion by mock-treated control cells was used to evaluate the effect of the chemicals on cell growth and to determine the IC50 concentration.
# NPC-TW01 cells [2] = assay: Cytosolic Ca2+ concentration (Fluo-3, flow cytometry); type: cell-based, human; conditions: IC50 concentration, 24 hours
# Method: as §1
# Jurkat cells = assay: Growth inhibition assay (MTT), Jurkat; type: cell-based; conditions: Homo sapiens, treated for three generations, read-out: Growth inhibitory activity IC50, Jurkat
# Method: as §2
# NPC-TW01 cells [3] = assay: Mitochondrial membrane potential (DiOC6 staining, flow cytometry); type: cell-based, human; conditions: IC50 concentration, 24 hours
# Method: To measure the change of mitochondrial potential transition (MPT), THF-ACGs treated cells were labeled with 100 nM DiOC6, harvested and suspended in PBS. The intensity of DiOC6 in cells was measured using FACScan flow cytometer.
# SCC-15 cells = assay: Growth inhibition assay (MTT), SCC-15; type: cell-based; conditions: Homo sapiens, Supplemental Table 1, read-out: Growth inhibitory activity IC50, SCC-15
# Method: as §2
# TW01-R-MTX cells = assay: Growth inhibition assay (MTT), methotrexate-resistant NPC-TW01; type: cell-based; conditions: Homo sapiens, drug-resistant cell line, three generations, read-out: Growth inhibitory activity IC50, TW01-R-MTX
# Method: as §2
# NPC-TW01 cells [4] = assay: Cell cycle distribution by PI staining and flow cytometry; type: cell-based, human; conditions: IC50 concentration, 24 hours
# Method: To measure the THF-ACGs effect on the cell cycle distribution, the THF-ACGs-treated cells were collected, fixed with ice-cold alcohol, treated with RNase and stained with propidium iodide. The DNA content of each sample was evaluated by FACScan flow cytometer and ratio of cell cycle phases were determined by ModFit software (Verity Software House Inc., Topsham, ME).
# SCC-25 cells = assay: Growth inhibition assay (MTT), SCC-25; type: cell-based; conditions: Homo sapiens, Supplemental Table 1, read-out: Growth inhibitory activity IC50, SCC-25
# Method: as §2
# Detroit 551 cells = assay: Growth inhibition assay (MTT), Detroit 551 normal fibroblasts; type: cell-based; conditions: Homo sapiens, treated for three generations, read-out: Growth inhibitory activity IC50, Detroit 551
# Method: as §2
# Hep 3B cells = assay: Growth inhibition assay (MTT), Hep 3B; type: cell-based; conditions: Homo sapiens, Hep3B, treated for three generations, footnote a, read-out: Growth inhibitory activity IC50, Hep 3B
# Method: as §2
# NPC-TW01 cells [5] = assay: Growth inhibition assay (MTT), NPC-TW01; type: cell-based; conditions: Homo sapiens
# Method: as §2
# FaDu cells = assay: Growth inhibition assay (MTT), FaDu; type: cell-based; conditions: Homo sapiens, treated for three generations, read-out: Growth inhibitory activity IC50, FaDu
# Method: as §2
# NPC-TW01 cells [6] = assay: Annexin-V/PI apoptosis assay by flow cytometry; type: cell-based, human; conditions: IC50 concentration, 36 hours
# Method: THF-ACGs induced apoptotic phenomena were monitored by The Annexin V-FITC Apoptosis Detection Kit II (BD Biosciences Pharmingen) according to the manufacturer’s instructions. Briefly, THF-ACGs-treated or control cells were collected and resuspended in 400 μL 1 × binding buffer at a concentration of ~1 × 10^6 cells/ml, and 5 μL of purified recombinant Annexin V and PI reagent were added. After incubation at room temperature for 15 min in the dark, the intensity of Annexin V and PI was measured by flow cytometer immediately and results were analyzed using De Novo software (MultiCycle AV Plug-in for FCS Express).
# HONE-1 cells = assay: Growth inhibition assay (MTT), HONE-1; type: cell-based; conditions: Homo sapiens, HONE1, treated for three generations, read-out: Growth inhibitory activity IC50, HONE-1
# Method: as §2
# HONE R-MTX cells = assay: Growth inhibition assay (MTT), methotrexate-resistant HONE-1; type: cell-based; conditions: Homo sapiens, HONE1, drug-resistant cell line, three generations, read-out: Growth inhibitory activity IC50, HONE R-MTX
# Method: as §2
# OECM-1 cells = assay: Growth inhibition assay (MTT), OECM-1; type: cell-based; conditions: Homo sapiens, OECM1, Supplemental Table 1, read-out: Growth inhibitory activity IC50, OECM-1
# Method: as §2
# HT-1080 cells = assay: Growth inhibition assay (MTT), HT-1080; type: cell-based; conditions: Homo sapiens, treated for three generations, read-out: Growth inhibitory activity IC50, HT-1080
# Method: as §2
# NPC-TW01 xenograft = assay: NPC-TW01 s.c. xenograft antitumor experiment; type: in vivo, BALB/c nude mice; conditions: squamostatin A 0.5 mg/kg i.p. every three days; paclitaxel 10 mg/kg weekly
# Method: For the antitumor xenograft experiments, specific pathogen–free male athymic BALB/c nude mice, 6 to 8 weeks of age, were inoculated with 1 × 10^6 of exponential growth viable NPC-TW01 cells at the right flank of mice and mice were randomly divided into three groups (8 in each group). Tumor-implanted mice were treated i.p. with vehicle (5% DMSO/10% cremophor/85% saline) or 0.5 mg/kg squamostatin A every three days. Paclitaxel (10 mg/kg, once a week) was used as a positive control. Tumor size was measured every three days with a caliper, and tumor volume was calculated by the following formula: V = (1/2) × […]. At the end of the experiments, the animals were euthanized by carbon dioxide inhalation, followed by cervical dislocation. The animal experiments were supervised and approved by the Institutional Animal Care and Use Committee (IACUC) of China Medical University (Taichung, Taiwan). All animal studies were performed in accordance with the Animal Protection Act of Taiwan.
# NPC-TW01 cells [7] = assay: Caspase inhibition assay (MTT cell survival); type: cell-based, human; conditions: pretreated 1 hour, squamostatin A for 72 hours
# Method: For caspase inhibition experiments, cell-permeable and irreversible inhibitors of caspase-12 were added to the medium one hour before the administration of squamostatin A. Cell survival was determined using the MTT assay to evaluate the effects of the test compound on cell growth, as described previously.
# [8] = treated for three generations, read-out: Growth inhibitory activity IC50, NPC-TW01
compound,measurement,setting,value
"NCCOB(c1ccccc1)c1ccccc1 [2-APB, 2-Aminoethoxydiphenyl borate, reference compound]",Content of mitochondrial calcium on squamostatin A treatment in the presence of 2-APB,"NPC-TW01 cells [1]; 2-APB 10 μM, squamostatin A IC50 concentration",diminish the content of mitochondrial calcium
CCCCCCCCCCCC[C@@H](O)[C@H]1CC[C@@H]([C@@H](O)CCCCC(=O)CCCCCCCC2=C[C@H](C)OC2=O)O1 [corossolone],pIC50,H226 cells; footnote a,< 5.70
same,"Ca2+ Cytosol (Fluo-3) GEO mean value, Treated",NPC-TW01 cells [2],149.2
same,pIC50,Jurkat cells,9.52
same,"Ca2+ Mitochondria (Rho-2) GEO mean value, Treated",NPC-TW01 cells [1]; IC50 concentration,149.2
same,Increase of mitochondrial Ca2+ (Rho-2) vs Ctrl,NPC-TW01 cells [1]; IC50 concentration,29%
same,Decrease of mitochondrial membrane potential vs Ctrl,NPC-TW01 cells [3],27%
same,"Mitochondrial membrane potential GEO mean value, Treated",NPC-TW01 cells [3],777
same,pIC50,SCC-15 cells,< 5.70
same,pIC50,TW01-R-MTX cells,7.54
same,"Cell cycle distribution, G0/G1",NPC-TW01 cells [4],40.9%
same,"Cell cycle distribution, G2/M",NPC-TW01 cells [4],30.5%
same,"Cell cycle distribution, S",NPC-TW01 cells [4],28.6%
same,pIC50,SCC-25 cells,< 5.70
same,pIC50,Detroit 551 cells,6.45
same,pIC50,Hep 3B cells,< 5.70
same,pIC50,"NPC-TW01 cells [5]; Supplemental Table 1, read-out: Growth inhibitory activity IC50, NPC-TW01 (Supplemental Table 1)",7.50
same,pIC50,NPC-TW01 cells [5]; [8],6.92
same,pIC50,FaDu cells; footnote a,< 5.70
same,"Annexin-V positive, E (early phase apoptosis)",NPC-TW01 cells [6],4.9%
same,"Annexin-V positive, L (late phase apoptosis)",NPC-TW01 cells [6],7.4%
same,pIC50,HONE-1 cells,6.88
same,pIC50,HONE R-MTX cells,6.83
same,pIC50,OECM-1 cells,< 5.70
same,pIC50,HT-1080 cells,6.15
"CN(Cc1cnc2nc(N)nc(N)c2n1)c1ccc(C(=O)N[C@@H](CCC(=O)O)C(=O)O)cc1 [methotrexate, reference compound]",pIC50,H226 cells,7.40
same,pIC50,Jurkat cells,7.74
same,pIC50,TW01-R-MTX cells; footnote b,2.72
same,pIC50,Detroit 551 cells; footnote a,5.70
same,pIC50,Hep 3B cells,< 5.70
same,pIC50,NPC-TW01 cells [5]; [8],7.37
same,pIC50,FaDu cells,7.04
same,pIC50,HONE-1 cells,7.18
same,pIC50,HONE R-MTX cells; footnote a,4.40
same,pIC50,HT-1080 cells,7.85
"CC(=O)O[C@H]1C(=O)[C@@]2(C)[C@H]([C@H](OC(=O)c3ccccc3)[C@]3(O)C[C@H](OC(=O)[C@H](O)[C@@H](NC(=O)c4ccccc4)c4ccccc4)C(C)=C1C3(C)C)[C@]1(OC(C)=O)CO[C@@H]1C[C@@H]2O [paclitaxel, Paclitaxel]",Overall tumor volume between weeks 6 and 13,NPC-TW01 xenograft,tumor continued growth slowly
Cbz-ATAD-CH2F,Effect of caspase-12 inhibitor pretreatment on squamostatin A toxicity against NPC-TW01 cell growth,NPC-TW01 cells [7],significantly block the toxicity of squamostatin A
